This is an account of results in ChEMBL document CHEMBL3044650, “Interaction studies of E. coli uracil phosphoribosyltransferase with 5-fluorouracil for potent anti cancer activity” (Med Chem Res, 2012).

This test deals with T1, Uracil phosphoribosyltransferase (Escherichia coli (strain K12), UniProt P0A8F0).
T1 sequence (P0A8F0 whole entry): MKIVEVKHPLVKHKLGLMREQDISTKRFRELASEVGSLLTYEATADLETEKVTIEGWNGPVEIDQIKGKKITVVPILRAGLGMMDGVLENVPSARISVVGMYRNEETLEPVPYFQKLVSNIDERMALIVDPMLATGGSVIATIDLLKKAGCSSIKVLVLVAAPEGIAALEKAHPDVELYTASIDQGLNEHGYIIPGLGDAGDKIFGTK
Kind of test: Inhibition of Escherichia coli K-12 MTCC 1302 UPRT activity by spectrophotometry.

In turn, `O=c1[nH]cc(F)c(=O)[nH]1` [FLUOROURACIL] yielded an inhibition constant (Ki) of 13 µM.

One may read the Ki as a dissociation constant, usually derived from enzyme kinetics or from competition with a known ligand. Low values mean a stronger hold on the target, high ones a looser hold on the target.
